pIC50: −log10 of the molar value. Like-named read-outs stand apart in the source and are kept apart here.
What was measured:
[1] = target: Granzyme B (human lymphocytes) (Homo sapiens (Human), UniProt P10144); assay: human Granzyme B biochemical assay
Procedure, shortened: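 Fluorogenic Ac-IETD-AFC cleavage (Ex 400/Em 505 nm) read after 60 min at 22 °C, following 30 min, 22 °C enzyme–compound pre-incubation. Working stocks: enzyme 10 nM in 0.1% BSA buffer, substrate 800 µM, compound 8 points, 3.16-fold from 40 µM. Controls set 0% (DMSO) and 100% (standard inhibitor) inhibition; IC50 fitted.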

[2] = metabolic stability assay using liver microsomes; assay type: in vitro ADME; conditions: human liver microsomes, with NRS at 37° C.
Experimental: In addition, compounds of Formula I-VIII described above are also tested in the metabolic stability assay using liver microsomes, as provided below.
Buffer pH7.4: Prepare 1 (M) KH2PO4 and 1 (M) K2HPO4. Titrate 1(M) K2HPO4 with 1 (M) KH2PO4 to obtain pH 7.40. Dilute this buffer 10 fold in Water (30 ml buffer+270 ml of water) to obtain 100 mM phosphate buffer. Adjust pH to 7.40±0.02 using 5(N) HCl or 5(N) NaOH.
NADPH Regeneration System (NRS): Prepare a solution containing 13 mM NADP, 33 mM Glucose-6-phosphate, 33 mM MgCl2 and 4 U/ml Glucose-6-phosphate dehydrogenase in buffer.
Liver Microsome (LM) suspension: Thaw LM vial on ice, then mix 1.0 ml LM (20 mg/ml) with 19 ml buffer [final LM Conc: 1 mg/ml]
LM+NRS suspension: Mix 5.0 ml NRS with 20 ml LM suspension [final LM Conc: 0.8 mg/ml]
System suitability standard: a synthesized compound having Mol wt 686.2 used as System suitability standard. Dissolve this compound in ice-cold acetonitrile to obtain concentration of 0.1 μg/ml and store at 4° C.
Compound Stock: 10 mM in DMSO
Sub stock (100 μM): 4 μl of 10 mM Compound Stock+[…] Acetonitrile
Working plate (2 μM): 10 μl of 100 μM Sub stock+490 μl buffer
Incubate all plastic materials including tips at 37° C. overnight.
Incubate LM suspension and NRS at 37° C. for 15 min before use.
Add 40 μl buffer to the wells of blank plate.
Add 40 μl compound (from working plate) to 0, 5, 10, 20, 30 and 60 min plates.
Initiate reaction by adding 40 μl of LM+NRS suspension in each plate.
Terminate reaction by adding 240 μl ice-cold acetonitrile containing system suitability standard at designated time points. For T=0 add 240 μl ice-cold acetonitrile containing system suitability standard before LM+NRS addition.
Centrifuge (3500 rpm, 20 min and 15° C.) the plates.
Mix 110 μl supernatant with 110 μl water and quantitate amount of Compound in the solution using LC-MS/MS.
For Scaled CLint & Predicted CL use the relevant physiological parameters, as applicable.
Human LM: Corning, Cat #25117
Mouse LM: Xenotech, Cat #M1000
(2) Volumes mentioned in the protocol are representative values and may change depending on number of test compounds.
(3) It is assumed that the compounds are chemically stable in the assay system/buffer.
The metabolic stability assay described above can be performed using different test concentrations, LM Concentrations, or time points.
Certain compounds of this disclosure were tested in the microsomal stability assay provided above.

[3] = Granzyme B (human lymphocytes) 5 nM, substrate Ac-IETD-AFC 200 μM, Cpd incubation with enzyme 30 mins, 22° C., read time 60 mins, read-out: IC50
[4] = Granzyme B IC50 as repeated in Table 7, read-out: IC50
[5] = Granzyme B IC50 as repeated in Table 7

Chain of Granzyme B (human lymphocytes) (P10144 21-247): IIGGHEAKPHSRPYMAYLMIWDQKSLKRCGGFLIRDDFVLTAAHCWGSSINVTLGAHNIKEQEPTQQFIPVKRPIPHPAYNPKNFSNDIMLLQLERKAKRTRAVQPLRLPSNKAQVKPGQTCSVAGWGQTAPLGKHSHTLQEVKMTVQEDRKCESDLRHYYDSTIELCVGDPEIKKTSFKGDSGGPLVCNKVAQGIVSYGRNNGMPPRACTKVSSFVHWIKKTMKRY

| SMILES | pIC50 [1, 3] | pIC50 [1, 4] | HLM % remaining @ 30 min [2] | pIC50 [1] | pIC50 [1, 5] |
| --- | --- | --- | --- | --- | --- |
| CC[C@H](C)[C@H](NC(=O)CF)C(=O)N[C@H]1COc2cccc3c2N(C1=O)[C@H](C(=O)NCc1c[nH]nn1)C3 [Compound C098, (1S,8S)-8-[(2S,3S)-2-(2-Fluoro-acetylamino)-3-methyl-pentanoylamino]-9-oxo-1,2,8,9-tetrahydra-7H-6-oxa-9a-aza-benzo[cd]azulene-1-carboxylic acid (1H-[1,2,3]triazol-4-ylmethyl)-amide] |  |  | *** (the symbol “***” indicates a remaining percentage of 71-100%) | 6.52 to 9.00 | 6.52 to 9.00 |
| CC(C)[C@H](NC(=O)COCCF)C(=O)N[C@H]1CCc2cccc3c2N(C1=O)[C@H](C(=O)NCc1c[nH]nn1)C3 [Compound C056, (2S,5S)-5-{(S)-2-[2-(2-Fluoro-ethoxy)-acetylamino]-3-methyl-butyrylamino}-4-oxo-1,2,4,5,6,7-hexahydro-azepino[3,2,1-hi]indole-2-carboxylic acid (1H-[1,2,3]triazol-4-ylmethyl)-amide] | 6.52 to 9.00 | 6.52 to 9.00 | *** (the symbol “***” indicates a remaining percentage of 71-100%) |  |  |
| CC(C)[C@H](NC(=O)Cc1csc2ccccc12)C(=O)N[C@H]1CCc2cccc3c2N(C1=O)[C@H](C(=O)NCc1c[nH]nn1)C3 [Compound C003, (2S,5S)-5-[(S)-2-(2-Benzo[b]thiophen-3-yl-acetylamino)-3-methyl-butyrylamino]-4-oxo-1,2,4,5,6,7-hexahydro-azepino[3,2,1-hi]indole-2-carboxylic acid (1H-[1,2,3]triazol-4-ylmethyl)-amide] |  | 6.52 to 9.00 | * (“*” indicates a remaining percentage of 0-30%) |  |  |
| CC[C@H](C)[C@H](NC(=O)c1ccnc(F)c1)C(=O)N[C@H]1CCc2cccc3c2N(C1=O)[C@H](C(=O)NCc1c[nH]nn1)C3 [Compound C141, (2S,5S)-5-{(2S,3S)-2-[(2-Fluoro-pyridine-4-carbonyl)-amino]-3-methyl-pentanoylamino}4-oxo-1,2,4,5,6,7-hexahydro-azepino[3,2,1-hi]indole-2-carboxylic acid (1H-[1,2,3]triazol-4-ylmethyl)-amide] | 6.52 to 9.00 | 6.52 to 9.00 | *** (the symbol “***” indicates a remaining percentage of 71-100%) |  |  |
| CC(C)[C@H](NC(=O)CF)C(=O)N[C@H]1CCc2cccc3c2N(C1=O)[C@H](C(=O)NCc1c[nH]nn1)C3 [Compound C057, (2S,5S)-5-[(S)-2-(2-Fluoro-acetylamino)-3-methyl-butyrylamino]-4-oxo-1,2,4,5,6,7-hexahydro-azepino[3,2,1-hi]indole-2-carboxylic acid (1H-[1,2,3]triazol-4-ylmethyl)-amide] |  |  | *** (the symbol “***” indicates a remaining percentage of 71-100%) | 6.52 to 9.00 | 6.52 to 9.00 |
| CC[C@H](C)[C@H](NC(=O)CF)C(=O)N[C@H]1CCc2cccc3c2N(C1=O)[C@H](C(=O)NCc1c[nH]nn1)C3 [Compound C059, (2S,5S)-5-[(2S,3S)-2-(2-Fluoro-acetylamino)-3-methyl-pentanoylamino]-4-oxo-1,2,4,5,6,7-hexahydro-azepino[3,2,1-hi]indole-2-carboxylic acid (1H-[1,2,3]triazol-4-ylmethyl)-amide] |  |  | *** (the symbol “***” indicates a remaining percentage of 71-100%) | 6.52 to 9.00 | 6.52 to 9.00 |

The next lines start with results.

| pIC50 [1, 3] | pIC50 [1, 4] | SMILES | HLM % remaining @ 30 min [2] | pIC50 [1] | pIC50 [1, 5] |
| --- | --- | --- | --- | --- | --- |
| 6.52 to 9.00 | 6.52 to 9.00 | CC[C@@H](C)[C@H](NC(=O)Cc1csc2ccccc12)C(=O)N[C@H]1CCc2cccc3c2N(C1=O)[C@H](C(=O)NCc1c[nH]nn1)C3 [Compound C054, (2S,5S)-5-[(2S,3R)-2-(2-Benzo[b]thiophen-3-yl-acetylamino)-3-methyl-pentanoylamino]-4-oxo-1,2,4,5,6,7-hexahydro-azepino[3,2,1-hi]indole-2-carboxylic acid (1H-[1,2,3]triazol-4-ylmethyl)-amide] | * (“*” indicates a remaining percentage of 0-30%) |  |  |
| 6.52 to 9.00 | 6.52 to 9.00 | CC(C)[C@H](NC(=O)COCCF)C(=O)N[C@H]1COc2cccc3c2N(C1=O)[C@H](C(=O)NCc1c[nH]nn1)C3 [Compound C103, (1S,8S)-8-{(S)-2-[2-(2-Fluoro-ethoxy)-acetylamino]-3-methyl-butyrylamino}-9-oxo-1,2,8,9-tetrahydro-7H-6-oxa-9a-aza-benzo[cd]azulene-1-carboxylic acid (1H-[1,2,3]triazol-4-ylmethyl)-amide] | *** (the symbol “***” indicates a remaining percentage of 71-100%) |  |  |
| 6.52 to 9.00 | 6.52 to 9.00 | CC[C@H](C)[C@H](NC(C)=O)C(=O)N[C@H]1COc2cccc3c2N(C1=O)[C@H](C(=O)NCc1c[nH]nn1)C3 [Compound C097, (1S,8S)-8-((2S,3S)-2-Acetylamino-3-methyl-pentanoylamino)-9-oxo-1,2,8,9-tetrahydro-7H-6-oxa-9a-aza-benzo[cd]azulene-1-carboxylic acid (1H-[1,2,3]triazol-4-ylmethyl)-amide] | *** (the symbol “***” indicates a remaining percentage of 71-100%) |  |  |
| 6.52 to 9.00 | 6.52 to 9.00 | CC(=O)N[C@H](C(=O)N[C@H]1CCc2cccc3c2N(C1=O)[C@H](C(=O)NCc1c[nH]nn1)C3)C(C)C [Compound C025, (2S,5S)-5-((S)-2-Acetylamino-3-methyl-butyrylamino)-4-oxo-1,2,4,5,6,7-hexahydro-azepino[3,2,1-hi]indole-2-carboxylic acid (1H-[1,2,3]triazol-4-ylmethyl)-amide] | *** (the symbol “***” indicates a remaining percentage of 71-100%) |  |  |
| 6.52 to 9.00 | 6.52 to 9.00 | CC[C@H](C)[C@H](NC(=O)c1ccc(F)nc1)C(=O)N[C@H]1CCc2cccc3c2N(C1=O)[C@H](C(=O)NCc1c[nH]nn1)C3 [Compound C140, (2S,5S)-5-{(2S,3S)-2-[(6-Fluoro-pyridine-3-carbonyl)-amino]-3-methyl-pentanoylamino}-4-oxo-1,2,4,5,6,7-hexahydro-azepino[3,2,1-hi]indole-2-carboxylic acid (1H-[1,2,3]triazol-4-ylmethyl)-amide] | *** (the symbol “***” indicates a remaining percentage of 71-100%) |  |  |
| 6.52 to 9.00 | 6.52 to 9.00 | CC[C@@H](C)[C@H](NC(=O)c1ccccc1)C(=O)N[C@H]1CCc2cccc3c2N(C1=O)[C@H](C(=O)NCc1c[nH]nn1)C3 [Compound C053, (2S,5S)-5-((2S,3R)-2-Benzoylamino-3-methyl-pentanoylamino)-4-oxo-1,2,4,5,6,7-hexahydro-azepino[3,2,1-hi]indole-2-carboxylic acid (1H-[1,2,3]triazol-4-ylmethyl)-amide] | ** (“**” indicates a remaining percentage of 31-70%) |  |  |
